Data reported in US20170216297A1, “EFFICIENT INHIBITION OF HSP27” (TECHNISCHE UNIVERSITAET DRESDEN, priority 2014, published 2017).
pKd: −log10 of the molar value. Read-outs that look alike come from different tables or passages of the source. Each block holds one molecule with its values, some of them ahead of it.

Experiments:
[1] = molecular target: T1, HSP27 (Homo sapiens, UniProt P04792); test: Bio-layer interferometry (ForteBio Octet Red 384, biotinylated HSP27 on SSA sensors); format: binding
Description: Bio-layer interferometry is a technique for detecting biomolecular interactions. It is an analytical technique that measures the optical interference of white light which is reflected by two surfaces: in each case, one surface consists of a layer of the immobilized target protein on the tip of the biosensor and one is an internal reference surface. The binding of ligands to the target protein alters the interference pattern and can be measured in real time.
For the measurements, an instrument of the ForteBio Octet Red 384 brand was used. The target protein HSP27 was biotinylated and bound to the appropriate sensors (SSA). […] The purine derivatives of general formula (I) or (II) pre-identified by means of in silico screening are employed for these measurements in a concentration range (KD) of between 333 μmol/L and 10 nmol/L.
For measurements by bio-layer interferometry, biotinylated HSP27 protein was first bound to Super-Streptavidin sensors (SSA, Fortebio). The loaded sensors were then incubated (“quenched”) with biocytin. As reference, unloaded SSA sensors were incubated with biocytin. In the case of a specific binding to HSP27 of the analyte to be measured, the loaded HSP27 sensor generates a stronger signal (response) than the concurrent reference sensor. After the “baseline” has been established by incubation with the reaction buffer (PBST 0.1% Tween 20 plus 3% DMSO), first the association and then the dissociation of the respective analyte is measured in real time. The analytes were measured in increasing concentrations in each case: 1.23-3.7-11.11-33.33-100-300 μM/l.

[2] = molecular target: T1, HSP27; test: Spectrophotometric protein aggregation assay (citrate synthase heat denaturation, HSP27 chaperone function); format: biochemical; settings: 43° C., 500 nm
Protocol: FIG. 1: a spectrophotometric protein aggregation assay at 43° C., a wavelength of 500 nm and a concentrations of the proteins: 1.44 μmol/L citrate synthase (CS), 481 nmol/L HSP27 (HSP) in a 40 mmol/L HEPES buffer (pH 7.4) during treatment with 14 or 28 μmol/L 2-(3-trichlorovinylphenylamino)-1,9-dihydropurin-6-one (CS+HSP+test substance no. 2), with 750 μmol/L BVDU (CS+HSP+BVDU) and without (CS+HSP; reference);
A known client protein (=substrate on which HSP27 acts as a chaperone) of HSP27 is citrate synthase. Citrate synthase is denatured when the temperature increases to 43° C. This heat denaturation is prevented or delayed by the presence of HSP27 [Jakob U, 1993]. By adding the novel active ingredients, their efficacy can thus be measured through the inhibition of the HSP27 chaperone function.
To determine the activity (i.e. the effect on the aggregation behaviour of the citrate synthase (CS) after thermal incubation) of 2-(3-trichlorovinylphenylamino)-1,9-dihydropurin-6-one in comparison to BVDU, four different batches containing 1.44 μmol/L CS, 481 nmol/L HSP27 (HSP) in a 40 mmol/L HEPES buffer (pH 7.4) were prepared and BVDU (750 μmol/L) or various concentrations of 2-(3-trichlorovinylphenylamino)-1,9-dihydropurin-6-one (14 μmol/L; 28 μmol/L) were added. The samples were then incubated at 43° C. and the aggregation behaviour of the CS was monitored in a spectrometer (PerkinElmer LS55, PerkinElmer Inc.) at a wavelength of 500 nm.
It can be seen from FIG. 1 that the protein citrate synthase (graph CS alone) is denatured by increasing the temperature to 43° C. and forms aggregates. The aggregation is measured in the spectrometer at 500 nm (light scattering by protein aggregates). The presence of HSP27 (HSP) counteracts the aggregation (cf. graph, CS+HSP). Since the addition of the test substances (BVDU and 2-(3-trichlorovinylphenylamino)-1,9-dihydropurin-6-one) inhibits the chaperone function of HSP27, the activity of the respective test substance can be determined by measuring the aggregation behaviour of the CS.

[3] = tested on: RPMI-8226 cells; test: Development of resistance to bortezomib in RPMI-8226 cells; format: cell-based
Protocol: The cell line RPMI-8226 (DMSZ 402) is a “multiple myeloma” cell line and was chosen because bortezomib is employed as a standard therapy for multiple myeloma. RPMI-8226 cells respond to bortezomib, express HSP27 and develop resistance to Velcade. RPMI-8226 cells were seeded at a cell count of 100,000 cells/ml in each case and regularly passaged. […] In contrast, for RPMI 8226 cells that were treated with 30 μmol/L BVDU, a final cell count of 160,000 cells/ml was detected whereas the final cell count for the culture without the addition of an HSP27 inhibitor amounted to 350,000 cells/ml. As a control, RPMI 8226 cells were treated with the respective test substances alone, FIG. 4b.

[4] = molecular target: T1, HSP27; test: Capillary electrophoresis of the CS protein precipitates (precipitated citrate synthase as measure of HSP27 inhibition); format: biochemical; settings: for times higher activity than BVDU for the inhibition of the HSP27 protein: 120 minutes
Protocol: (§1) Since the heat-denatured protein aggregates of the citrate synthase from Example 1 are not water-soluble, these can be separated completely from the supernatant by means of centrifugation at room temperature at 16,000×g, 10 min. By using capillary electrophoresis, the compositions of the separated precipitates can be shown and quantified. The relative quantity of protein of precipitated citrate synthase serves as a measure of the efficacy of the test substances.
(§2) In each case, 481 nmol/L HSP27 and 1.44 μmol/L citrate synthase in 40 mmol/L HEPES buffer, pH 7.4, were employed. The relative quantity of protein of the precipitated citrate synthase in each case was normalized using a defined quantity of BSA as internal standard. The relative quantity of protein that precipitated when using 750 μmol/L BVDU was set at 1. The other test substances (2 representatives of phenothiazine derivatives of general formula (V), 2 representatives of purine derivatives of formula (I) or (II)) were each employed at a concentration of 10 μmol/L.
as §1, with “Example 2” for “Example 1”
as §2, with “nM” for “nmol/L”, “thymine” for “purine”, “were” for “were each”, “μmol/L in each case.” for “μmol/L.”
Otherwise, the experiments were performed as described above: […]

[5] = tested on: U937 cells; test: Development of resistance to bortezomib in U937 cells; format: cell-based; settings: Examples 17/18: bortezomib 0.1-0.5 ng/ml, plus 0.75 μmol/L inhibitor
Protocol: For this purpose, U937 cells (histiocytic lymphoma) were cultured in DMEM culture medium (+10% FCS) at 37° C., 5% CO2 in an H2O-saturated atmosphere. 100,000 cells/ml were seeded and incubated with the cytostatic agent bortezomib (0.1 ng/ml) and the respective test substance (dosage in the current experiment: 1 μM/L acepromazine). The reference substance, BVDU, was employed at a concentration of 30 μM/L. The cells were in each case passaged before the cell count reached 1,000,000 cells/ml. At each passage, 100,000 cells/ml were again seeded and the dose of the cytostatic agent bortezomib was increased stepwise (0.1 ng/mL or 0.05 ng/mL). The concentration of the test substances remained constant. As a result of the stepwise increase in the dosage of the cytostatic agent, resistance developed in the U937 cells. The development of resistance is prevented or inhibited in the case of a positively tested HSP27 inhibitor. The experiments from Example 6 were repeated in the same way, wherein U937 cells (histiocytic lymphoma) are cultured in DMEM culture medium (+10% FCS) at 37° C., 5% CO2 in an H2O— saturated atmosphere. 100,000 cells/ml were seeded and incubated with an initial concentration of 0.2 ng/ml of the cytostatic agent bortezomib and both without an inhibitor and with acepromazine as an HSP27 inhibitor at a concentration of 1 μM/L. The reference substance, BVDU, was employed at a concentration of 30 μM/L. The cells were passaged in each case before the cell count reached 1,000,000 cells/ml. At each passage, 100,000 cells/ml were again seeded and the dose of the cytostatic agent bortezomib was increased stepwise by 0.1 ng/mL. The concentration of the test substance and the reference substance remained constant. As a result of the stepwise increase in the dosage of the cytostatic agent, resistance developed in the U937 cells. The development of resistance is prevented or inhibited in the case of a positively tested HSP27 inhibitor. The cell line U-937 is a histiocytic lymphoma (DSMZ ACC 5). This cell line also responds to treatment with bortezomib, expresses HSP27 and develops resistance to bortezomib. Bortezomib is not the standard therapy for this lymphoma, but is being discussed as a possible therapeutic agent. U-937 cells were seeded with a cell count of 100,000 cells/ml in each case and regularly passaged. […] At the end of the experiment, 70,000 living cells per ml medium could be detected. For the treatment with 30 μmol/L BVDU, a final cell count of 250,000 cells/ml was detected whereas the final cell count in the culture without the addition of an HSP27 inhibitor amounted to 450,000 cells/ml. As a control, U-937 cells were treated with the respective test substances alone, FIG. 10b.

[6] = cited from earlier work
[7] = analytes 1.23-300 μM/l, PBST 0.1% Tween 20 plus 3% DMSO, read-out: Dissociation constant KD
[8] = bortezomib 0.1-0.3 ng/ml, plus 1 μM inhibitor
[9] = 10 μmol/L, 43° C. for 120 minutes, 750 μmol/L BVDU set at 1
[10] = bio-layer interferometry, read-out: KD
[11] = bortezomib 0.075-0.275 ng/ml, plus 1 μmol/L inhibitor

T1 sequence (P04792 whole entry): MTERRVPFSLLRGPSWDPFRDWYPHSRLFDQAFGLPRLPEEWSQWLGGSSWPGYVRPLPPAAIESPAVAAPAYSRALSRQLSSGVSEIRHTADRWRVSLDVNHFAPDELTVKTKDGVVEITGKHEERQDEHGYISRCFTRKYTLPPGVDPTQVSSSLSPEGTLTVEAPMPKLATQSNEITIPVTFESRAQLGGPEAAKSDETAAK

pKd [1, 7]: 4.22
SMILES: O=c1[nH]c(=O)n([C@H]2C[C@H](O)[C@@H](CO)O2)cc1-c1ccccc1 [5-Phenyl-2′-deoxyuridine]

pKd [1, 7]: 3.57 | Rel. quantity of protein prec. CS [4, 9]: 0.65 | times higher activity than BVDU for the inhibition of the HSP27 protein ([4]; 10 μmol/L): 49 times
SMILES: Cc1cn(CC=CCNC(=O)C2c3ccccc3Oc3ccccc32)c(=O)[nH]c1=O [9H-xanthene-9-carboxylic acid [4-(5-methyl-2,4-dioxo-3,4-dihydro-2H-pyrimidin-1-yl)-but-2-enyl]amide]
development of resistance to bortezomib [3, 11]: significantly inhibited

Rel. quantity of protein prec. CS ([4]; 750 μmol/L, 43° C. for 70 minutes, set at 1): 1 | Rel. quantity of protein prec. CS ([4]; 750 μmol/L, 43° C. for 120 minutes, set at 1): 1
SMILES: O=c1[nH]c(=O)n([C@H]2C[C@H](O)[C@@H](CO)O2)cc1/C=C/Br [BVDU, (E)-5-(2-bromovinyl)-2′-deoxyuridine, reference compound]
Inhibition of HSP27 chaperone function (CS aggregation) ([2]; 750 μmol/L): partially cancels the chaperone function of HSP27 | tolerability in patients ([6]; increased administered dose of 760 mg/day): proved disadvantageous for low-weight patients | safety and efficacy in patients ([6]; oral, administered dose of 500 mg/day): works safely and efficiently

Second part, the molecule before the results:

SMILES: O=c1nc(Nc2cccc(CO)c2)[nH]c2nc[nH]c12 [2-(3-Hydroxymethylphenylamino)-3,7-dihydropurin-6-one]
pKd [1, 7]: 3.15

SMILES: O=c1[nH]c(Nc2cccc(C(Cl)=C(Cl)Cl)c2)nc2[nH]cnc12 [2-(3-trichlorovinylphenylamino)-1,9-dihydropurin-6-one]
Inhibition of HSP27 chaperone function (CS aggregation), effect versus 750 μmol/L BVDU ([2]; 14 μmol/L): comparable effect | Inhibition of HSP27 chaperone function (CS aggregation), effect versus 750 μmol/L BVDU ([2]; 28 μmol/L): significantly more pronounced effect | development of resistance to bortezomib [3, 8]: significantly inhibited | Rel. quantity of protein prec. CS [4, 9]: 0.71 | times higher activity than BVDU for the inhibition of the HSP27 protein ([4]; 10 μmol/L): 53 times

SMILES: CCCCc1ccc(Nc2nc3c(ncn3COCCO)c(=O)[nH]2)cc1 [2-(4-butylphenylamino)-9-(2-hydroxyethoxymethyl)-1,9-dihydropurin-6-one]
development of resistance to bortezomib [3, 8]: significantly inhibited | pKd [1, 10]: 4.82 | Efficacy compared with BVDU ([4]; 10 μmol/L vs 750 μmol/L BVDU, 43° C. for 120 minutes): 69.0 x | Rel. quantity of protein prec. CS [4, 9]: 0.92 | times higher activity than BVDU for the inhibition of the HSP27 protein ([4]; 10 μmol/L): 69 times | development of resistance to bortezomib [5]: significantly inhibited

SMILES: Cc1cn(CC=CCNC(=O)Cc2ccc(-c3ccccc3)cc2)c(=O)[nH]c1=O [2-biphenyl-4-yl-N-[4-(5-methyl-2,4-dioxo-3,4-dihydro-2H-pyrimidin-1-yl)-but-2-enyl]-acetamide]
development of resistance to bortezomib [3, 11]: significantly inhibited | pKd [1, 7]: 3.37 | Rel. quantity of protein prec. CS [4, 9]: 0.81 | times higher activity than BVDU for the inhibition of the HSP27 protein ([4]; 10 μmol/L): 61 times

SMILES: CN(C)CCCN1c2ccccc2Sc2ccc(Cl)cc21 [Chlorpromazine, reference compound]
development of resistance to bortezomib ([3]; bortezomib 0.2-0.4 ng/ml, plus 0.5 μmol/L inhibitor): significantly inhibited | pKd [1, 10]: 3.11
